From US8318504B2, “MRP2 efflux pathway prognostic method” (priority 2009, dated 2012)

Assays:
OATP1B1 = molecular target: T1, OATP1B1 (Homo sapiens, UniProt Q9Y6L6); test: Uptake of CLF into CHO cells expressing OATP1B1; format: cell-based; settings: 1 μmol/L CLF, 1 or 5 minutes
T1 construct: expressed in transfected cells; host or cells: CHO cells (stably transfected; Treiber et al. 2007)
T1 sequence (Q9Y6L6 1-691): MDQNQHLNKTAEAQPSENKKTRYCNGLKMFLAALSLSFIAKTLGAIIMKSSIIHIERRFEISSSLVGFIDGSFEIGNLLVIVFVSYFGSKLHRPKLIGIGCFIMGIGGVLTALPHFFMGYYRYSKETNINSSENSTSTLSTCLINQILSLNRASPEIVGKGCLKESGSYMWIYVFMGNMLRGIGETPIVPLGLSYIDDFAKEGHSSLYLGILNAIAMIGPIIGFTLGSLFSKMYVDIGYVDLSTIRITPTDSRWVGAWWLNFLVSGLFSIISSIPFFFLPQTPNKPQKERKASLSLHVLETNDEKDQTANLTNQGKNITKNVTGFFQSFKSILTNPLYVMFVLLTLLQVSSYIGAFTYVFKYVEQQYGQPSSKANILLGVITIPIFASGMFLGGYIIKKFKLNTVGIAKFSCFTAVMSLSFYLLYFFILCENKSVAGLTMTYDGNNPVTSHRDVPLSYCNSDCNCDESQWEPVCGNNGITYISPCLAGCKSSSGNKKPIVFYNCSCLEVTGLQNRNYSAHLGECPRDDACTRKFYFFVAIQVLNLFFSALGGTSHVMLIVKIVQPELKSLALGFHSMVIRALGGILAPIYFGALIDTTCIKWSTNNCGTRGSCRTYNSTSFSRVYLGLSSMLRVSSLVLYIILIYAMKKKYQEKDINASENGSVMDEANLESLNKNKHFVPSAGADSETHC
Experimental: cDNA for human NTCP [Hagenbuch et al., J Clin Invest 1994 March; 93(3): 1326-1331] was cut with EcoRV and HindI and the coding region ligated into pcDNA5/FRT (Invitrogen, Life-Technologies, Carlsbad, Calif.). CHO FlpIn cells (Invitrogen, Life-Technologies) were transfected with the resulting construct using Lipofectamine® 2000 (Invitrogen, Life-Technologies). Stably transfected cells were selected with 550 μg Hygromycin-B in HAM-F12 medium (Gibco, Invitrogen, Life-Technologies). Transfected cells were cloned with the limiting dilution method. […] To further characterize the cloned cells, immunofluorescence localization of NTCP using a polyclonal antibody against NTCP [Kullak-Ublick G et al., Gastroenterology 1997 October; 113(4):1295-1305] was performed as described by Huber R D et al. [Am J Physiol Cell Physiol 2007 February; 292(2):[…]-[…]]. CHO cells expressing OATP1B1, OATP1B3 and OATP2B1 were described previously [Treiber et al., DMD 35:1400-1407, 2007]. […] After complete solubilization, 1.5 ml was used to measure fluorescence in a Perkin-Elmer LS-5 luminescence-spectrometer set at λexe 486 nm (slit 10 nm) and λem 520 nm (slit 5 nm). Protein was determined with the bicinchoninic acid method using a kit from Interchim (Montfuçon, France). […]

ABCG2 = molecular target: T2, ABCG2 (Homo sapiens, UniProt Q9UNQ0); test: ATP-dependent transport of CLF into Sf21 membrane vesicles containing ABCG2; format: biochemical; settings: compared with control vesicles
T2 construct: made in house; host or cells: Sf21 insect cells, baculovirus (gift from Borst); plasma membrane vesicles
T2 sequence (Q9UNQ0 1-655): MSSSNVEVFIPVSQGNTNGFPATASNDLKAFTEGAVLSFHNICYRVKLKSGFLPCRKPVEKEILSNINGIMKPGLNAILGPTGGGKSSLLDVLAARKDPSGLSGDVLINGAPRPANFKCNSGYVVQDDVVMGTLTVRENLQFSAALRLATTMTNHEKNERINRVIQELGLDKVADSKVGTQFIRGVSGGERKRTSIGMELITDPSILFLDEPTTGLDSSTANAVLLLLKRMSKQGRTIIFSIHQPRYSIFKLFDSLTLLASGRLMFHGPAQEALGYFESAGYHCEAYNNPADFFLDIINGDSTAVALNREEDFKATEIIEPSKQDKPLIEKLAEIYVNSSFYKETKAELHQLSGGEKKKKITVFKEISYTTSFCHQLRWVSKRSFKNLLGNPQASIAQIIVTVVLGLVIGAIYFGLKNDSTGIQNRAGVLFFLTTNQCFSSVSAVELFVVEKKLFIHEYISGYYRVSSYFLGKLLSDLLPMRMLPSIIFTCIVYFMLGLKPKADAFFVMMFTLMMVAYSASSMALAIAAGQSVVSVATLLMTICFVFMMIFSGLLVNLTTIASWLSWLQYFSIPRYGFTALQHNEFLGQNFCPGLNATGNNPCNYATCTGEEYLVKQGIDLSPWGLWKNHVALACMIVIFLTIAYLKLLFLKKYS
Experimental: The production of recombinant baculovirus was as described by de Waart et al. [Liver Int 2006 April; 26(3):362-368]. ABCC3 and ABCG2-recombinant baculovirus were a kind gift from Borst [Breedveld P. et al., Cancer Res 2004 Aug. 15; 64(16):5804-5811 and Borst P. et al., J Biol Chem 2001 Dec. 7; 276(49):46400-46407.]. ABCB11-recombinant baculovirus was a kind gift from Thompson [Thompson R J et al., Gastroenterology 2002 November; 123(5):1649-1658]. Sf21 cells grown at 27° C. were infected with ABCB11, ABCC2, ABCC3 and ABCG2-cDNA containing baculovirus. Cells were harvested at 2-4 days after infection. Membrane vesicle preparation was as described by de Waart et al. [Liver Int 2006 April; 26(3):362-368].
Transport studies with membrane vesicles were performed using the rapid filtration technique as described by Heijn M et al. [Am J Physiol 1992 January; 262(1 Pt 1):C104-C110]. Radiolabel was measured with a scintillation counter. When CLF was used as a probe, filters were placed in a glass tube, 0.1% Triton-X-100 was added and the tubes vortexed. Samples were pipetted in 96-well plates (Kartell, Noviglio, Italy) and the amount CLF quantitated by measurement of fluorescence at λexe 485 nm and λcm 520 nm using a NovoStar (BMG-labtech, Offenburg, Germany).

SMILES: CC(CCC(=O)NC(CCCCNC(=S)Nc1ccc(-c2c3ccc(=O)cc-3oc3cc(O)ccc23)c(C(=O)O)c1)C(=O)O)C1CCC2C3C(O)CC4CC(O)CCC4(C)C3CC(O)C12C (centres unmarked) [CLF, cholyl lysyl fluorescein]
- uptake of CLF into OATP1B1 cells (OATP1B1): very weak but consistent
- ATP-dependent transport of CLF in ABCG2 containing membrane vesicles (ABCG2): not higher than in control vesicles
